Data: ChEMBL document CHEMBL5543121, “Drug Repurposing of ACT001 to Discover Novel Promising Sulfide Prodrugs with Improved Safety and Potent Activity for Neutrophil-Mediated Antifungal Immunotherapy” (J Med Chem, 2024)
Active and inactive are the calls of the source. The calls are words filed in the database; no cut-off is given here.

Legend:
[1] = Inhibition of fungal curdlan induced PD-L1 expression in mouse neutrophils at 40 uM relative to control; assay type: functional, Neutrophil; conditions: for inhibition at 40 µM: Mus musculus, Neutrophil
[2] = (§1) Cytotoxicity against mouse neutrophils assessed as cell viability at 40 uM relative to control; assay type: toxicity, cell-based, Neutrophil; conditions: mouse neutrophils, read-out: Activity
Candida albicans [3] = experiment: Antifungal activity against candida albicans SC5314 infected in mouse assessed as reduction in fungal burden in kidney at 200 mg/kg, po administered on day 1 and 3; assay type: functional, organism-based; conditions: time 1-3 day
Candida albicans [4] = experiment: Antifungal activity against candida albicans SC5314 infected in mouse assessed as reduction in PD-L1 positive Ly6G-positive neutrophils in kidney at 200 mg/kg, po administered on day 1 and 3; assay type: functional, organism-based; conditions: time 1-3 day
[5] = biological target: Signal transducer and activator of transcription 3 (Mus musculus) (UniProt P42227); experiment: Binding affinity to STAT3 in mouse bone marrow neutrophils at 20 uM by silver staining based pulldown assay; assay type: cell-based; conditions: Neutrophil
[6] = biological target: Signal transducer and activator of transcription 3 (Mus musculus) (UniProt P42227); experiment: Binding affinity to STAT3 in mouse bone marrow neutrophils at 20 uM by pulldown based Western blot analysis; assay type: cell-based; conditions: Neutrophil
Neutrophil = experiment: as §1; assay type: toxicity, cell-based; conditions: neutrophil, 40 µM

Chain of Signal transducer and activator of transcription 3 (Mus musculus) (P42227 whole entry): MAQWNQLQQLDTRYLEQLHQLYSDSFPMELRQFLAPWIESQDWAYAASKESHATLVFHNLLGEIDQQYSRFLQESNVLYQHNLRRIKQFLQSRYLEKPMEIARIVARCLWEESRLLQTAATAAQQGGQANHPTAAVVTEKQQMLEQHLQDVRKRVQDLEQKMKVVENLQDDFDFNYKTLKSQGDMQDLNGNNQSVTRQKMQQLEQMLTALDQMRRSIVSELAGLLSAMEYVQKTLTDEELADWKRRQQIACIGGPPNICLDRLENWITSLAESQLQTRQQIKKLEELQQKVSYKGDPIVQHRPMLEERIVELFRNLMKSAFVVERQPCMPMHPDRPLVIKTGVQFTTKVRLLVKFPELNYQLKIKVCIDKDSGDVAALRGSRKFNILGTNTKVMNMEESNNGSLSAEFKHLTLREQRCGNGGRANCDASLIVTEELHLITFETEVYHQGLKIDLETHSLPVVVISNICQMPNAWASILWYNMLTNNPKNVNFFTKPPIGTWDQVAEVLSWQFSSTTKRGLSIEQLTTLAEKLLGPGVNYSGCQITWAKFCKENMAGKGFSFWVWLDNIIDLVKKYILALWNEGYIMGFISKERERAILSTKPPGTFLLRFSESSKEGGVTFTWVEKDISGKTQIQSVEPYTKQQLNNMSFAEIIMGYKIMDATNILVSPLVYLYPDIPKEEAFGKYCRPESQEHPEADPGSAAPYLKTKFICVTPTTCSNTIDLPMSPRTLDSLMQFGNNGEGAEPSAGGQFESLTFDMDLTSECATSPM

**Q.** What does the source list for `CC1=C2CC[C@@](C)(O)[C@@H]2[C@H]2OC(=O)[C@@H](CSc3ccc(C)cc3)[C@@H]2CC1`?
**A.** inhibition at 40 µM [1]: 34.8%; viability at 40 µM [2]: 70.6%

**Q.** Which inhibition at 40 µM [1] does the source give for `C[C@@]1(O)CC[C@]23O[C@@]2(C)CC[C@@H]2[C@H](OC(=O)[C@H]2CS(=O)(=O)c2ccc(Cl)c(Cl)c2)[C@@H]13` here?
**A.** 72.7%

**Q.** And the viability at 40 µM [2]?
**A.** 65.2%

**Q.** Which results are given for `C[C@@]1(O)CC[C@]23O[C@@]2(C)CC[C@@H]2[C@H](OC(=O)[C@H]2CS(=O)(=O)c2ncccn2)[C@@H]13`?
**A.** inhibition at 40 µM [1]: 85%; viability at 40 µM [2]: 55.5%

**Q.** Which inhibition at 40 µM [1] does the source give for `C[C@@]1(O)CC[C@]23O[C@@]2(C)CC[C@@H]2[C@H](OC(=O)[C@H]2C[S+]([O-])c2ccc(Cl)cc2Cl)[C@@H]13` (stereo in doubt; 23a) here?
**A.** 61.1%

**Q.** What about the viability at 40 µM [2] of the same compound?
**A.** 59.2%

**Q.** For `Cc1ccc(S(=O)(=O)C[C@@H]2C(=O)O[C@H]3[C@H]2CC[C@]2(C)O[C@@]24CC[C@@](C)(O)[C@H]34)cc1`, which Activity (Candida albicans [3]) is on record?
**A.** Active

**Q.** And the Activity (Candida albicans [4])?
**A.** Active

**Q.** And the inhibition at 40 µM [1]?
**A.** 82%

**Q.** And the viability at 40 µM [2]?
**A.** 71.5%

**Q.** For `C[C@@]1(O)CC[C@]23O[C@@]2(C)CC[C@@H]2[C@H](OC(=O)[C@H]2CS(=O)(=O)c2ccc(F)cc2)[C@@H]13`, which inhibition at 40 µM [1] is on record?
**A.** 82.6%

**Q.** And the viability at 40 µM [2]?
**A.** 50.7%

**Q.** With `CC1=C2CC[C@@](C)(O)[C@@H]2[C@H]2OC(=O)[C@@H](C)[C@@H]2CC1` as the compound, how does the inhibition at 40 µM [1] read?
**A.** 17.3%

**Q.** What about the viability at 40 µM [2] of the same compound?
**A.** 98.6%

**Q.** For `CC1=C2CC[C@@](C)(O)[C@@H]2[C@H]2OC(=O)[C@@H](CSc3ncccn3)[C@@H]2CC1`, which inhibition at 40 µM [1] is on record?
**A.** 49.9%

**Q.** And the viability at 40 µM [2]?
**A.** 60.2%

**Q.** What does the source list for `CC1=C2CC[C@@](C)(O)[C@@H]2[C@H]2OC(=O)[C@@H](CSc3ccc(Cl)cc3Cl)[C@@H]2CC1`?
**A.** inhibition at 40 µM [1]: 52.6%; viability at 40 µM [2]: 20.8%

**Q.** For `COc1ccc(S(=O)(=O)C[C@@H]2C(=O)O[C@H]3[C@H]2CCC(C)=C2CC[C@@](C)(O)[C@@H]23)cc1`, which inhibition at 40 µM [1] is on record?
**A.** 63.5%

**Q.** And the viability at 40 µM [2]?
**A.** 39.5%

**Q.** Which inhibition at 40 µM [1] does the source give for `C[C@@]1(O)CC[C@]23O[C@@]2(C)CC[C@@H]2[C@H](OC(=O)[C@H]2CS(=O)(=O)c2ccc(Cl)cc2Cl)[C@@H]13` here?
**A.** 78.8%

**Q.** And the viability at 40 µM [2]?
**A.** 74.9%

**Q.** For `C=C1C(=O)O[C@H]2[C@H]1CCC(C)=C1CC[C@@](C)(OC(=O)CCCc3cn(CCOCCOCCOCCNC(=O)CCCC[C@H]4SC[C@H]5NC(=O)N[C@H]54)nn3)[C@@H]12`, which Activity [5] is on record?
**A.** Active

**Q.** And the Activity [6]?
**A.** Active

**Q.** Which results are given for `CC1=C2CC[C@@](C)(O)[C@@H]2[C@H]2OC(=O)[C@@H](CSc3ccc(F)cc3)[C@@H]2CC1`?
**A.** inhibition at 40 µM [1]: 45.6%; viability at 40 µM [2]: 74.6%

**Q.** What does the source list for `C[C@@]1(O)CC[C@]23O[C@@]2(C)CC[C@@H]2[C@H](OC(=O)[C@H]2C[S+]([O-])c2ccc(Cl)cc2Cl)[C@@H]13` (stereo in doubt; 23b)?
**A.** inhibition (INH) ([1]; 40 µM): 52.64%; Activity (Neutrophil): 65.45%

**Q.** With `CC1=C2CC[C@@](C)(O)[C@@H]2[C@H]2OC(=O)[C@@H](CSCCC(C)C)[C@@H]2CC1` as the compound, how does the inhibition at 40 µM [1] read?
**A.** 25.2%

**Q.** What about the viability at 40 µM [2] of the same compound?
**A.** 101%
